Source: publication PMC6412366, “The Limitations of Collagen/CPP Hybrid Peptides as Carriers for Cancer Drugs to FaDu Cells” (Molecules, 2019)

Tested on: FaDu cell surface
Assay: Suramin wash (competitive binding) of FL8V1-treated FaDu cells
Assay type: cell-based, human
Details: concluded from reversed incubation order
Protocol: FaDu cells were seeded into MatTek dishes (No. 1.5 coverglass, 35 mm). After the cells were at least 70% confluent, the media was removed and the cells were gently washed with PBS. […] The cells were washed twice with PBS. Additional EMEM medium was added before the cell cultures were imaged using confocal microscopy (λEX = 488 for FITC tag) using the 60X oil immersion objective.

## Cc1ccc(C(=O)Nc2ccc(S(=O)(=O)O)c3cc(S(=O)(=O)O)cc(S(=O)(=O)O)c23)cc1NC(=O)c1cccc(NC(=O)Nc2cccc(C(=O)Nc3cc(C(=O)Nc4ccc(S(=O)(=O)O)c5cc(S(=O)(=O)O)cc(S(=O)(=O)O)c45)ccc3C)c2)c1 [suramin]
  binding of suramin to the FaDu cell surface: does not bind
